Assay results from patent US4226863A, “7-Methoxy cephalosporins” (Sumitomo Chemical Company, Limited, priority 1975, dated 1980).
Values after ≈ are worked out from the molar mass of the structure shown.

Key:
Type in all cases: cell-based
[1] = system: Enterobacter aerogenes No. 101; assay: antimicrobial activity, minimum inhibitory concentration, Enterobacter aerogenes No. 101; conditions: Klebsiella aerogenes
Protocol: (§1) The antimicrobial activities of the compounds prepared in the previous Examples were determined in a usual manner and the minimum inhibitory concentrations (in terms of μg/ml) are set forth in the Table below.

Escherichia coli NIHJ = assay: antimicrobial activity, minimum inhibitory concentration, Escherichia coli NIHJ
Serratia No. 115 = assay: antimicrobial activity, minimum inhibitory concentration, Serratia No. 115
Protocol: as §1

[2] = system: Pseudomonas aeruginosa IID 5142; assay: antimicrobial activity, minimum inhibitory concentration, Pseudomonas aeruginosa IID 5142; conditions: IID5142
Protocol: as §1

Proteus vulgaris HX 19 = assay: antimicrobial activity, minimum inhibitory concentration, Proteus vulgaris HX 19; conditions: HX19
Protocol: as §1

Structure (SMILES) | MIC [1] [µg/mL] | MIC (Escherichia coli NIHJ) [µg/mL] | MIC (Serratia No. 115) [µg/mL] | MIC [2] [µg/mL] | MIC (Proteus vulgaris HX 19) [µg/mL]
COC1(NC(=O)C(NC(=O)c2cnccc2O)c2cccs2)C(=O)N2C(C(=O)O)=C(CSc3nnnn3C)CSC21 (stereo not shown) [Example 34] | 12.5 (≈ 20.2 µM) | 12.5 (≈ 20.2 µM) | 50 (≈ 80.8 µM) | 6.25 (≈ 10.1 µM) | 0.39 (≈ 0.63 µM)
COC1(NC(=O)C(NC(=O)c2cnc3cccnc3c2O)c2ccco2)C(=O)N2C(C(=O)O)=C(CSc3nnnn3C)CSC21 (stereo not shown) [Example 35] | 3.13 (≈ 4.79 µM) | 1.56 (≈ 2.39 µM) | 6.25 (≈ 9.56 µM) | 3.13 (≈ 4.79 µM) | 0.39 (≈ 0.597 µM)
COC1(NC(=O)C(NC(=O)c2cnc3cccnc3c2O)C2=CCCCC2)C(=O)N2C(C(=O)O)=C(COC(C)=O)CSC21 (stereo not shown) [Example 36] | 12.5 (≈ 20.4 µM) | 3.13 (≈ 5.12 µM) | 50 (≈ 81.7 µM) | 3.13 (≈ 5.12 µM) | 0.39 (≈ 0.638 µM)
COC1(NC(=O)C(NC(=O)c2cnc3cncnc3c2O)c2ccc(O)cc2)C(=O)N2C(C(=O)[O-])=C(C[n+]3ccc(C(N)=O)cc3)CSC21 (stereo not shown) [Example 37] | 6.25 (≈ 9.1 µM) | 6.25 (≈ 9.1 µM) | 50 (≈ 72.8 µM) | 12.5 (≈ 18.2 µM) | 0.78 (≈ 1.14 µM)
COC1(NC(=O)C(NC(=O)c2cnc3ccncc3c2O)c2ccc(O)cc2)C(=O)N2C(C(=O)O)=C(CSc3nnnn3C)CSC21 (stereo not shown) [Example 38] | 12.5 (≈ 18.4 µM) | 12.5 (≈ 18.4 µM) | 25 (≈ 36.8 µM) | 12.5 (≈ 18.4 µM) | 0.78 (≈ 1.15 µM)
COc1cc(C(NC(=O)c2cnc3cccnc3c2O)C(=O)NC2(OC)C(=O)N3C(C(=O)O)=C(COC(N)=O)CSC32)ccc1O (stereo not shown) [Example 39] | 12.5 (≈ 19.1 µM) | 3.13 (≈ 4.78 µM) | 50 (≈ 76.4 µM) | 3.13 (≈ 4.78 µM) | 0.78 (≈ 1.19 µM)
COC1(NC(=O)C(NC(=O)c2cnc3cccnc3c2O)c2cc(Cl)c(O)c(Cl)c2)C(=O)N2C(C(=O)O)=C(CSc3nnc(C)s3)CSC21 (stereo not shown) [Example 40] | 6.25 (≈ 8.17 µM) | 6.25 (≈ 8.17 µM) | 12.5 (≈ 16.3 µM) | 3.13 (≈ 4.09 µM) | 0.78 (≈ 1.02 µM)
COC1(NC(=O)C(NC(=O)c2cnccc2O)c2ccc(O)c(F)c2)C(=O)N2C(C(=O)O)=C(CSc3nnnn3C)CSC21 (stereo not shown) [Example 41] | 12.5 (≈ 19.3 µM) | 12.5 (≈ 19.3 µM) | 50 (≈ 77.3 µM) | 6.25 (≈ 9.67 µM) | 0.39 (≈ 0.603 µM)
COC1(NC(=O)C(NC(=O)c2cnccc2O)c2cccc(O)c2)C(=O)N2C(C(=O)O)=C(CSc3nnc(CO)s3)CSC21 (stereo not shown) [Example 42] | 25 (≈ 37.8 µM) | 12.5 (≈ 18.9 µM) | 50 (≈ 75.7 µM) | 12.5 (≈ 18.9 µM) | 0.78 (≈ 1.18 µM)
COc1nc(OC)c2c(O)c(C(=O)NC(C(=O)NC3(OC)C(=O)N4C(C(=O)O)=C(CSc5nncs5)CSC43)c3ccc(O)cc3)cnc2n1 (stereo not shown) [Example 43] | 25 (≈ 33.7 µM) | 12.5 (≈ 16.8 µM) | 50 (≈ 67.3 µM) | 12.5 (≈ 16.8 µM) | 1.56 (≈ 2.1 µM)
COC1(NC(=O)C(NC(=O)c2cnccc2O)c2ccc(O)c(O)c2)C(=O)N2C(C(=O)O)=C(COC(N)=O)CSC21 (stereo not shown) [Example 44] | 50 (≈ 84.8 µM) | 12.5 (≈ 21.2 µM) | 100 (≈ 170 µM) | 12.5 (≈ 21.2 µM) | 0.78 (≈ 1.32 µM)
COC1(NC(=O)C(NC(=O)c2cnc3cccnc3c2O)c2ccc(O)c(O)c2)C(=O)N2C(C(=O)O)=C(CSc3nnc(C)s3)CSC21 (stereo not shown) [Example 45] | 12.5 (≈ 17.6 µM) | 3.13 (≈ 4.4 µM) | 12.5 (≈ 17.6 µM) | 6.25 (≈ 8.78 µM) | 0.78 (≈ 1.1 µM)
COC1(NC(=O)C(NC(=O)c2cnc3cn[nH]c3c2O)c2ccc(O)cc2)C(=O)N2C(C(=O)O)=C(CSc3nnnn3C)CSC21 (stereo not shown) [Example 46] | 6.25 (≈ 9.35 µM) | 1.56 (≈ 2.33 µM) | 6.25 (≈ 9.35 µM) | 6.25 (≈ 9.35 µM) | 0.39 (≈ 0.583 µM)
COC1(NC(=O)C(NC(=O)c2cnc3cccnc3c2O)c2ccc(O)cc2)C(=O)N2C(C(=O)O)=C(CSc3ccc4nnnn4n3)CSC21 (stereo not shown) [Example 47] | 6.25 (≈ 8.72 µM) | 3.13 (≈ 4.37 µM) | 12.5 (≈ 17.4 µM) | 6.25 (≈ 8.72 µM) | 0.39 (≈ 0.544 µM)
COC1(NC(=O)C(NC(=O)c2cnc3cccnc3c2O)c2cccs2)C(=O)N2C(C(=O)O)=C(COC(N)=O)CSC21 (stereo not shown) [Example 48] | 6.25 (≈ 10.2 µM) | 3.13 (≈ 5.09 µM) | 25 (≈ 40.7 µM) | 3.13 (≈ 5.09 µM) | 0.39 (≈ 0.635 µM)
COC1(NC(=O)C(NC(=O)c2nnc(O)nc2O)c2ccccc2)C(=O)N2C(C(=O)O)=C(COC(C)=O)CSC21 (stereo not shown) [Example 49] | 50 (≈ 87 µM) | 25 (≈ 43.5 µM) | 100 (≈ 174 µM) | 25 (≈ 43.5 µM) | 1.56 (≈ 2.72 µM)
COC1(NC(=O)C(NC(=O)c2nnc(O)nc2O)c2ccc(O)cc2)C(=O)N2C(C(=O)O)=C(CSc3nnnn3C)CSC21 (stereo not shown) [Example 50] | 25 (≈ 38.7 µM) | 12.5 (≈ 19.3 µM) | 50 (≈ 77.3 µM) | 12.5 (≈ 19.3 µM) | 1.56 (≈ 2.41 µM)
COC1(NC(=O)C(NC(=O)c2nnc(SC)nc2O)c2ccccc2)C(=O)N2C(C(=O)O)=C(COC(N)=O)CSC21 (stereo not shown) [Example 51] | 50 (≈ 82.6 µM) | 25 (≈ 41.3 µM) | 100 (≈ 165 µM) | 25 (≈ 41.3 µM) | 1.56 (≈ 2.58 µM)
COC1(NC(=O)C(NC(=O)c2nnc(O)nc2O)c2ccc(O)cc2)C(=O)N2C(C(=O)O)=C(COC(N)=O)CSC21 (stereo not shown) [Example 52] | 50 (≈ 84.5 µM) | 25 (≈ 42.3 µM) | 100 (≈ 169 µM) | 25 (≈ 42.3 µM) | 1.56 (≈ 2.64 µM)
COC1(NC(=O)C(NC(=O)c2nnc(S)nc2O)c2ccccc2)C(=O)N2C(C(=O)O)=C(CSc3nnc(C)s3)CSC21 (stereo not shown) [Example 53] | 50 (≈ 75.4 µM) | 25 (≈ 37.7 µM) | 100 (≈ 151 µM) | 25 (≈ 37.7 µM) | 1.56 (≈ 2.35 µM)
